Test results reported in patent US9708314B2, “Heterocyclic amide compound” (NISSAN CHEMICAL INDUSTRIES, LTD., priority 2013, dated 2017).

Tests used:
Format in all cases: in vivo
Alopecurus myosuroides = experiment: Test Example 4: herbicidal effect by application to foliage (diluvial soil, plastic box); settings: application to foliage; for J: herbicidal effect on Alopecurus myosuroides: application herbicide amount 320 g/ha
In short: (§1)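 Read-out is a 0–5 visual grade of herbicidal ratio (5: ≥90%, almost withered; 0: ≤5%) taken three weeks after treatment. Compound was applied as a diluted emulsion to stem and leaf parts of 14-day greenhouse-grown plants (25° C. to 30° C.) at rates expressed as g/ha.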

Chenopodium album = experiment: as above; settings: application to foliage; for O: herbicidal effect on Chenopodium album: application herbicide amount 320 g/ha
In short: as §1

[1] = system: Echinochloa crus-galli var. crus-galli; experiment: as above; settings: application to foliage; for H: herbicidal effect on Echinochloa crus-galli var. crus-galli: application herbicide amount 320 g/ha
In short: as §1

Digitaria ciliaris = experiment: as above; settings: application to foliage; for F: herbicidal effect on Digitaria ciliaris: application herbicide amount 320 g/ha
In short: as §1

Galium spurium = experiment: as above; settings: application to foliage; for Q: herbicidal effect on Galium spurium: application herbicide amount 320 g/ha
In short: as §1

Apera spica-venti. = experiment: as above; settings: application to foliage; for L: herbicidal effect on Apera spica-venti.: application herbicide amount 320 g/ha
In short: as §1

Setaria viridis = experiment: as above; settings: application to foliage; for G: herbicidal effect on Setaria viridis: application herbicide amount 320 g/ha
In short: as §1

Abutilon theophrasti = experiment: as above; settings: application to foliage; for M: herbicidal effect on Abutilon theophrasti: application herbicide amount 320 g/ha
In short: as §1

Avena fatua = experiment: as above; settings: application to foliage; for I: herbicidal effect on Avena fatua: application herbicide amount 320 g/ha
In short: as §1

Lolium multiflorum Lam. = experiment: as above; settings: application to foliage; for K: herbicidal effect on Lolium multiflorum Lam.: application herbicide amount 320 g/ha
In short: as §1

Leptochloa chinensis = experiment: Test Example 3: herbicidal effect by application to foliage (Wagner pot, water depth 0.1-0.5 cm); settings: Nineteenth Table; application to foliage; application herbicide amount 320 g/ha
In short: (§2)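 Scores (0–5) reflect herbicidal ratio three weeks after a foliar spray: 0 is 5% or less, 5 is 90% or more. Plants had grown 14 days in alluvial soil pots in a 25–30 °C greenhouse before treatment with water-diluted emulsion at a set g/ha.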

[2] = system: Echinochloa crus-galli var. crus-galli; experiment: as above; settings: Nineteenth Table; application to foliage; application herbicide amount 320 g/ha
In short: as §2

Zea mays = experiment: Test Example 4: effect on crop by application to foliage (diluvial soil, plastic box); settings: application to foliage; for c: effect on crop, Zea mays: application herbicide amount 320 g/ha
In short: as §1

[3] = system: directly sowed Oryza sativa; experiment: as above; settings: application to foliage; for b: effect on crop, directly sowed Oryza sativa: application herbicide amount 320 g/ha
In short: as §1

[4] = system: Beta vulgaris ssp. vulgaris; experiment: as above; settings: application to foliage; for f: effect on crop, Beta vulgaris ssp. vulgaris: application herbicide amount 320 g/ha
In short: as §1

Triticum aestivum = experiment: as above; settings: application to foliage; for e: effect on crop, Triticum aestivum: application herbicide amount 320 g/ha
In short: as §1

Brassica campestris L. = experiment: as above; settings: application to foliage; for g: effect on crop, Brassica campestris L.: application herbicide amount 320 g/ha
In short: as §1

Glycine max = experiment: as above; settings: application to foliage; for d: effect on crop, Glycine max: application herbicide amount 320 g/ha
In short: as §1

Structure (SMILES) | J: herbicidal effect on Alopecurus myosuroides (Alopecurus myosuroides) | O: herbicidal effect on Chenopodium album (Chenopodium album) | H: herbicidal effect on Echinochloa crus-galli var. crus-galli [1] | F: herbicidal effect on Digitaria ciliaris (Digitaria ciliaris) | Q: herbicidal effect on Galium spurium (Galium spurium) | L: herbicidal effect on Apera spica-venti. (Apera spica-venti.) | G: herbicidal effect on Setaria viridis (Setaria viridis) | M: herbicidal effect on Abutilon theophrasti (Abutilon theophrasti) | I: herbicidal effect on Avena fatua (Avena fatua) | K: herbicidal effect on Lolium multiflorum Lam. (Lolium multiflorum Lam.) | D (herbicidal effect grade) (Leptochloa chinensis) | H (herbicidal effect grade) [2] | c: effect on crop, Zea mays (Zea mays) | b: effect on crop, directly sowed Oryza sativa [3] | f: effect on crop, Beta vulgaris ssp. vulgaris [4] | e: effect on crop, Triticum aestivum (Triticum aestivum) | g: effect on crop, Brassica campestris L. (Brassica campestris L.) | d: effect on crop, Glycine max (Glycine max) | other results
Cc1nnc(NC(=O)c2ccc(C(F)(F)F)n3c(CC#N)nnc23)o1 [1-168] | 0 (Herbicidal ratio of 5% or less (almost no effect)) | 5 (Herbicidal ratio of 90% or more (almost completely withered)) | 5 (Herbicidal ratio of 90% or more (almost completely withered)) | 5 (Herbicidal ratio of 90% or more (almost completely withered)) | 1 (Herbicidal ratio of 5% or more and less than 20%) | 0 (Herbicidal ratio of 5% or less (almost no effect)) | 4 (Herbicidal ratio of 70% or more and less than 90%) | 3 (Herbicidal ratio of 40% or more and less than 70%) | 1 (Herbicidal ratio of 5% or more and less than 20%) | 1 (Herbicidal ratio of 5% or more and less than 20%) | 3 (Herbicidal ratio of 40% or more and less than 70%) | 4 (Herbicidal ratio of 70% or more and less than 90%) | 0 (Herbicidal ratio of 5% or less (almost no effect)) | 3 (Herbicidal ratio of 40% or more and less than 70%) | 5 (Herbicidal ratio of 90% or more (almost completely withered)) | 1 (Herbicidal ratio of 5% or more and less than 20%) | 3 (Herbicidal ratio of 40% or more and less than 70%) | 3 (Herbicidal ratio of 40% or more and less than 70%) | 
C=CCc1nnc2c(C(=O)Nc3nnco3)ccc(C(F)(F)F)n12 [1-158] | 1 (Herbicidal ratio of 5% or more and less than 20%) | 5 (Herbicidal ratio of 90% or more (almost completely withered)) | 5 (Herbicidal ratio of 90% or more (almost completely withered)) | 5 (Herbicidal ratio of 90% or more (almost completely withered)) | 3 (Herbicidal ratio of 40% or more and less than 70%) | 3 (Herbicidal ratio of 40% or more and less than 70%) | 4 (Herbicidal ratio of 70% or more and less than 90%) | 4 (Herbicidal ratio of 70% or more and less than 90%) | 3 (Herbicidal ratio of 40% or more and less than 70%) | 2 (Herbicidal ratio of 20% or more and less than 40%) | 4 (Herbicidal ratio of 70% or more and less than 90%) | 5 (Herbicidal ratio of 90% or more (almost completely withered)) | 0 (Herbicidal ratio of 5% or less (almost no effect)) | 0 (Herbicidal ratio of 5% or less (almost no effect)) | 5 (Herbicidal ratio of 90% or more (almost completely withered)) | 2 (Herbicidal ratio of 20% or more and less than 40%) | 3 (Herbicidal ratio of 40% or more and less than 70%) | 4 (Herbicidal ratio of 70% or more and less than 90%) | 
Cc1nnc(NC(=O)c2ccc(C(F)(F)F)n3c(CC(F)(F)F)nnc23)o1 [1-162] | 1 (Herbicidal ratio of 5% or more and less than 20%) | 4 (Herbicidal ratio of 70% or more and less than 90%) | 4 (Herbicidal ratio of 70% or more and less than 90%) | 3 (Herbicidal ratio of 40% or more and less than 70%) | 2 (Herbicidal ratio of 20% or more and less than 40%) | 0 (Herbicidal ratio of 5% or less (almost no effect)) | 1 (Herbicidal ratio of 5% or more and less than 20%) | 3 (Herbicidal ratio of 40% or more and less than 70%) | 1 (Herbicidal ratio of 5% or more and less than 20%) | 1 (Herbicidal ratio of 5% or more and less than 20%) | 4 (Herbicidal ratio of 70% or more and less than 90%) | 4 (Herbicidal ratio of 70% or more and less than 90%) | 0 (Herbicidal ratio of 5% or less (almost no effect)) | 0 (Herbicidal ratio of 5% or less (almost no effect)) | 3 (Herbicidal ratio of 40% or more and less than 70%) | 0 (Herbicidal ratio of 5% or less (almost no effect)) | 1 (Herbicidal ratio of 5% or more and less than 20%) | 3 (Herbicidal ratio of 40% or more and less than 70%) | 
Cn1nnnc1NC(=O)c1ccc(C(F)(F)F)n2c(SCc3ccc(Cl)nc3)nnc12 [2-097] |  |  |  |  |  |  |  |  |  |  | 3 (Herbicidal ratio of 40% or more and less than 70%) | 2 (Herbicidal ratio of 20% or more and less than 40%) |  |  |  |  |  |  | herbicidal effect, J (Alopecurus myosuroides) (Alopecurus myosuroides; 320 g/ha): 1 (Herbicidal ratio of 5% or more and less than 20%); herbicidal effect, O (Chenopodium album) (Chenopodium album; 320 g/ha): 5 (Herbicidal ratio of 90% or more (almost completely withered)); herbicidal effect, H (Echinochloa crus-galli var. crus-galli) ([1]; 320 g/ha): 5 (Herbicidal ratio of 90% or more (almost completely withered)); herbicidal effect, F (Digitaria ciliaris) (Digitaria ciliaris; 320 g/ha): 4 (Herbicidal ratio of 70% or more and less than 90%); herbicidal effect, Q (Galium spurium) (Galium spurium; 320 g/ha): 3 (Herbicidal ratio of 40% or more and less than 70%); herbicidal effect, L (Apera spica-venti.) (Apera spica-venti.; 320 g/ha): 2 (Herbicidal ratio of 20% or more and less than 40%); herbicidal effect, G (Setaria viridis) (Setaria viridis; 320 g/ha): 3 (Herbicidal ratio of 40% or more and less than 70%); herbicidal effect, M (Abutilon theophrasti) (Abutilon theophrasti; 320 g/ha): 3 (Herbicidal ratio of 40% or more and less than 70%); herbicidal effect, I (Avena fatua) (Avena fatua; 320 g/ha): 2 (Herbicidal ratio of 20% or more and less than 40%); herbicidal effect, K (Lolium multiflorum Lam.) (Lolium multiflorum Lam.; 320 g/ha): 1 (Herbicidal ratio of 5% or more and less than 20%); effect on crop, b (Zea mays) (Zea mays; 320 g/ha): 0 (Herbicidal ratio of 5% or less (almost no effect)); effect on crop, d (directly sowed Oryza sativa) ([3]; 320 g/ha): 3 (Herbicidal ratio of 40% or more and less than 70%); effect on crop, f (Beta vulgaris ssp. vulgaris) ([4]; 320 g/ha): 4 (Herbicidal ratio of 70% or more and less than 90%); effect on crop, e (Triticum aestivum) (Triticum aestivum; 320 g/ha): 0 (Herbicidal ratio of 5% or less (almost no effect)); effect on crop, g (Brassica campestris L.) (Brassica campestris L.; 320 g/ha): 1 (Herbicidal ratio of 5% or more and less than 20%); effect on crop, c (Glycine max) (Glycine max; 320 g/ha): 0 (Herbicidal ratio of 5% or less (almost no effect))
